Results on 7 compounds are retold here after patent US10561681B2, “Antimetastatic 2H-selenopheno[3,2-h]chromenes, synthesis thereof, and methods of using same agents” (Latvian Institute of Organic Synthesis, priority 2016, dated 2020).

Structures are written as SMILES. “And” between values parts separate entries of the source, which are not always exact repeats. Identical values can stand only once. Like-named read-outs stand apart in the source and are kept apart here.

Common to all, as to format: cell-based
One data set has as its system MG-22A (mouse hepatoma). In words: In vitro cytotoxicity, MTT test. As to conditions: 72 h, read-out: Cytotoxicity IC50, MG-22A. The method, then: (§1) Anticancer activity of selenopheno[h]chromenes was tested in vitro using cytotoxicity assay. […] About 2-9·10^4 cells/mL (depending on line nature) were placed in 96-well plates immediately after compounds were added to the wells. Untreated cells were used as a control. The plates were incubated for 72 h, 37° C., 5% CO2. The number of surviving cells was determined using 3-(4,5-dimethylthiazol-2-yl)-2,5-diphenyltetrazolinium bromide (MTT). MTT-test: after incubating culture medium was removed and 200 μL fresh medium with 10 mM HEPES was added in each well of the plate, than 20 μL MTT (2 mg/mL in HBSS) was added. After incubation (3 hr, 37° C., 5% CO2), the medium with MTT was removed and 200 μL DMSO were added at once to each sample. The samples were tested at 540 nm on Anthos HT II photometer.
Background: Formazan colour is commonly taken as a measure of viable cells.

Data set [1] deals with HepG2 (human hepatocellular carcinoma). In words: In vitro cytotoxicity, MTT test. As to conditions: read-out: Cytotoxicity IC50, HepG2. The method, then: as §1
A further data set concerns CCL-8 (mouse sarcoma). The experiment in a line: In vitro cytotoxicity, MTT test. As to conditions: 72 h, read-out: Cytotoxicity IC50, CCL-8. Here is the method:
as §1

Data set [2] concerns A549 (human lung carcinoma). The experiment in a line: In vitro cytotoxicity, MTT test. The following applies: Homo sapiens, A549, 72 h, read-out: Cytotoxicity IC50, A549. Here is the method:
as §1

Data set [3] has as its system HT-1080 (human fibrosarcoma). In words: In vitro cytotoxicity, MTT test. The following applies: read-out: Cytotoxicity IC50, HT-1080. Here is the method:
as §1

Data set [4] concerns SH-SY5Y (human neuroblastoma). The experiment in a line: In vitro cytotoxicity, MTT test. The following applies: Homo sapiens, SH-SY5Y, 72 h, read-out: Cytotoxicity IC50, SHSY5Y. Here is the method:
as §1

Data set [5] relates to MCF-7 (human breast adenocarcinoma, estrogen-positive). The experiment in a line: In vitro cytotoxicity, MTT test. As to conditions: read-out: Cytotoxicity IC50, MCF-7. Here is the method: as §1
Data set [6] has as its system MDA-MB-435s (human melanoma). In words: In vitro cytotoxicity, MTT test. As to conditions: 72 h, read-out: Cytotoxicity IC50, MDA-MB-435s. Here is the method:
as §1

The test system of data set [7] is MES-SA (human uterus sarcoma). In words: In vitro cytotoxicity, MTT test. The following applies: 72 h, read-out: Cytotoxicity IC50, MES-SA. The method, then:
as §1

The nature of data set [8]: Basal cytotoxicity test, Neutral Red Uptake (NRU) assay. The following applies: for LD50 at 24 h: mouse, po, acute oral LD50 calculated from 3T3 NRU IC50 by regression formula, read-out: Basal cytotoxicity Estimated* LD50; for IC50 at 24 h: normal mouse embryo fibroblasts, read-out: Cytotoxicity IC50, 3T3. Here is the method: In parallel, the borderline concentration relevant to the highest tolerated dose has been determined for each compound using the NIH 3T3 (mouse embryo fibroblasts) cell line and the basal cytotoxicity obtained has then been used to predict the starting doses for in vivo acute oral LD50 values in rodents.
the Neutral Red Uptake (NRU) assay was performed according to the standard protocol of Stokes modified by the NICEATM-ECVAM validation study. The NRU cytotoxicity assay procedure is based on the ability of viable cells to incorporate and bind Neutral Red, a supravitally dye. Balb/c 3T3 (Mouse Swiss Albino embryo fibroblast) cells (9000 cells/well) were placed into 96-well plates for 24 h in Dulbecco's modified Eagle's (DMEM) medium containing 5% fetal bovine serum. The cells were then exposed to the test compounds over a range of […] concentrations (1000, 316, 100, 31, 10, 3, 1 μg/ml) for 24 h. Untreated cells were used as a control. After 24 h, the medium was removed from all plates. Then, 250 μL of Neutral Red solution were added (0.05 mg/mL NR in DMEM 24 h pre-incubated at 37° C. and then filtered before use through 0.22-μm syringe filter). Plates were incubated for 3 h and then cells were washed three times with PBS. The dye within viable cells was released by extraction with a mixture of acetic acid, ethanol and water (1:50:49). Absorbance of Neutral Red was measured using a spectrophotometer multiplate reader (TECAN, Infinite M1000) at 540 nm. The percentage of living cells was calculated using the formula: OD (treated cells)*100/OD (control cells). The IC50 values were calculated using the programme Graph Pad Prism® 3.0.
Data from the in vitro tests were used for estimating the starting dose for acute oral systemic toxicity tests in rodents. […] The value is recalculated to mg/kg and compounds are evaluated in accordance with four toxicity categories: category 1: LD50≤5 mg/kg (highly toxic); category 2: 5<LD50≤50 mg/kg (moderately toxic); category 3: 50<LD50≤300 mg/kg (slightly toxic); category 4: 300<LD50≤2 000 mg/kg (practically non-toxic).

For a further data set, the system named is malignant tumor cells. The experiment in a line: In vitro cytotoxicity on monolayer tumor cell lines (panel, summary in words). The following applies: summary of Table 1. Here is the method:
Anticancer activity of selenopheno[h]chromenes was tested in vitro using cytotoxicity assay. Thus, monolayer tumor cell lines MDA-MB-435s (human melanoma), MCF-7 (human breast adenocarcinoma, estrogen-positive), MES-SA (human uterus sarcoma), HT-1080 (human fibrosarcoma), A549 (human lung carcinoma), SH-SY5Y (human neuroblastoma), CCL-8 (mouse sarcoma), MG-22A (mouse hepatoma), and HepG2 (human hepatocellular carcinoma) were cultured in standard medium DMEM (Dulbecco's modified Eagle's medium) (“Sigma”) supplemented with 10% fetal bovine serum (“Sigma”). About 2-9·10^4 cells/mL (depending on line nature) were placed in 96-well plates immediately after compounds were added to the wells. Untreated cells were used as a control. The plates were incubated for 72 h, 37° C., 5% CO2. The number of surviving cells was determined using 3-(4,5-dimethylthiazol-2-yl)-2,5-diphenyltetrazolinium bromide (MTT). MTT-test: after incubating culture medium was removed and 200 μL fresh medium with 10 mM HEPES was added in each well of the plate, than 20 μL MTT (2 mg/mL in HBSS) was added. After incubation (3 hr, 37° C., 5% CO2), the medium with MTT was removed and 200 μL DMSO were added at once to each sample. The samples were tested at 540 nm on Anthos HT II photometer.

As a reminder, the IC50 is the midpoint of a concentration-inhibition curve. The term LD50 denotes the dose expected to kill half of the subjects tested. Regarding `Cl.O=C(O)c1cc2ccc3c(Br)c(CN4CCCCC4)[se]c3c2oc1=O` [Compound I-13, 7-Bromo-2-oxo-8-(piperidin-1-ylmethyl)-2H-selenopheno[3,2-h]chromene-3-carboxylic acid hydrochloride], the IC50 in the data set on MG-22A (mouse hepatoma) was 49 ± 6 µM; in data set [1] (HepG2, 72 h), > 197 µM; with CCL-8 (mouse sarcoma), > 122 µM; in data set [2] it was 129 ± 6 µM; in [3] (HT-1080, 72 h) it was 197 ± 3 µM; in data set [4], > 197 µM. In addition, the IC50 in data set [5] (MCF7, 72 h) came out at 119 ± 2 µM; in data set [6], 182 ± 11 µM; in data set [7] it was 103 ± 9 µM. Further, the LD50 at 24 h in [8] was 4300 µmol/kg and 2180 mg/kg. For the same compound, the half-maximal inhibitory concentration (IC50) at 24 h in data set [8] worked out at 197 ± 8 µM.

In the case of `Cl.O=C(O)c1cc2ccc3c(Br)c(CN4CCOCC4)[se]c3c2oc1=O` [Compound I-14, 7-Bromo-2-oxo-8-(morpholin-1-ylmethyl)-2H-selenopheno[3,2-h]chromene-3-carboxylic acid hydrochloride], the IC50 in the data set on MG-22A (mouse hepatoma) was found to be 59 ± 2 µM; in data set [1] (HepG2, 72 h), 106 ± 9 µM; in the data set with CCL-8 (mouse sarcoma), 79 ± 9 µM; in [2] it was 51 ± 8 µM; in [3] (HT-1080, 72 h), 100 ± 6 µM; in [4], 35 ± 9 µM. Besides, the IC50 was determined as 95 ± 9 µM in data set [5] (MCF7, 72 h); 156 ± 9 µM in [6]; 65 ± 6 µM in data set [7]. In the data set with malignant tumor cells, the “Cytotoxicity on cancer cell lines” value is “remained cytotoxicity on cancer cell lines”. Besides, the LD50 at 24 h in data set [8] is 1320 mg/kg and 2600 µmol/kg. For the same compound, the IC50 at 24 h in data set [8] turned out to be 43 ± 2 µM.

As to `COC1(c2[se]c3c(ccc4cc(C(=O)O[C@H]5CC[C@@]6(C)C(=CC[C@H]7[C@@H]8CC[C@H]([C@H](C)CCCC(C)C)[C@@]8(C)CC[C@@H]76)C5)c(=O)oc43)c2Br)CCCCC1` [Compound I-18, (3S,8S,9S,10R,13R,14S,17R)-10,13-Dimethyl-17-((R)-6-methylheptan-2-yl)-2,3,4,7,8,9,10,11,12,13,14,15,16,17-tetradecahydro-1H-cyclopenta[a]phenanthren-3-yl-7-bromo-8-(1-methoxycyclohexyl)-2-oxo-2H-selenopheno[3,2-h]chromene-3-carboxylate], the IC50 is > 117 µM with MG-22A (mouse hepatoma) (MTT); > 117 µM in data set [1] (HepG2, MTT, 72 h); > 117 µM with CCL-8 (mouse sarcoma) (MTT); > 117 µM in [2] (MTT, 72 h); > 117 µM in [3] (HT-1080, MTT, 72 h); > 117 µM in data set [4] (MTT). In addition, the half-inhibitory concentration (IC50) was > 117 µM in data set [5] (MCF7, MTT, 72 h); > 117 µM in [6] (MTT); > 117 µM in [7] (MTT). The LD50 at 24 h in [8] was 3700 µmol/kg and 3190 mg/kg. Besides, in [8], the IC50 at 24 h was > 117 µM.

Regarding `O=C(c1cc2ccc3c(Br)c(C4=CCCCC4)[se]c3c2oc1=O)N1CCCCC1` [Compound I-19, 7-Bromo-8-(cyclohex-1-en-1-yl)-3-(piperidine-1-carbonyl)-2H-selenopheno[3,2-h]chromen-2-one], the IC50 in the data set with MG-22A (mouse hepatoma) (MTT) was 41 ± 2 µM; in data set [1] (HepG2, MTT, 72 h), 103 ± 15 µM; in the data set on CCL-8 (mouse sarcoma) (MTT) it was > 193 µM; in [2] (MTT, 72 h), 100 ± 3 µM; in data set [3] (HT-1080, MTT, 72 h) it was 50 ± 5 µM; in data set [4] (MTT) it was > 117 µM. The IC50 is 125 ± 8 µM in data set [5] (MCF7, MTT, 72 h); 51 ± 8 µM in [6] (MTT); 105 ± 4 µM in [7] (MTT). Further, the LD50 at 24 h in data set [8] is 1000 µmol/kg and 500 mg/kg. Also, the IC50 at 24 h in data set [8] was found to be 161 ± 23 µM.

As to `O=C(c1cc2ccc3c(Br)c(C4=CCCCC4)[se]c3c2oc1=O)N1CCOCC1` [Compound I-20, 7-Bromo-8-(cyclohex-1-en-1-yl)-3-(morpholine-1-carbonyl)-2H-selenopheno[3,2-h]chromen-2-one], the IC50 with MG-22A (mouse hepatoma) (MTT) was 117 ± 7 µM; in data set [1] (HepG2, MTT, 72 h), 63 ± 6 µM; with CCL-8 (mouse sarcoma) (MTT) it was 126 ± 4 µM; in data set [2] (MTT, 72 h), 38 ± 5 µM; in data set [3] (HT-1080, MTT, 72 h), 92 ± 12 µM; in [4] (MTT), > 117 µM. In addition, the IC50 in data set [5] (MCF7, MTT, 72 h) turned out to be 81 ± 7 µM; in data set [6] (MTT) it was 13 ± 1 µM; in [7] (MTT), 61 ± 4 µM. Moreover, the LD50 at 24 h in data set [8] is 3000 µmol/kg and 1600 mg/kg. The IC50 at 24 h in data set [8] is > 192 µM.

As for `COCCN(CCOC)C(=O)c1cc2ccc3c(Br)c(C4=CCCCC4)[se]c3c2oc1=O` [Compound I-21, 7-Bromo-8-(cyclohex-1-en-1-yl)-N,N-bis(2-methoxyethyl)-2-oxo-2H-selenopheno[3,2-h]chromene-3-carboxamide], the IC50 in the data set on MG-22A (mouse hepatoma) (MTT) came out at 46 ± 6 µM; in data set [1] (HepG2, MTT, 72 h) it was 51 ± 7 µM; with CCL-8 (mouse sarcoma) (MTT), 100 ± 8 µM; in data set [2] (MTT, 72 h), 61 ± 6 µM; in [3] (HT-1080, MTT, 72 h) it was 51 ± 1 µM; in data set [4] (MTT), 139 ± 6 µM. Further, the IC50 in [5] (MCF7, MTT, 72 h) was 92 ± 12 µM; in data set [6] (MTT), 76 ± 4 µM; in [7] (MTT) it was 73 ± 3 µM. For the same compound, in [8], the LD50 at 24 h is 700 µmol/kg and 384 mg/kg. Further, the IC50 at 24 h in data set [8] is 131 ± 7 µM.

With `COC1(c2[se]c3c(ccc4cc(C(=O)N5CCOCC5)c(=O)oc43)c2Br)CCCCC1` [Compound I-22, 7-Bromo-8-(1-methoxycyclohexyl)-3-(morpholine-4-carbonyl)-2H-selenopheno[3,2-h]chromen-2-one], the IC50 with MG-22A (mouse hepatoma) (MTT) was 37 ± 1 µM; in data set [1] (HepG2, MTT, 72 h), 47 ± 2 µM; in the data set on CCL-8 (mouse sarcoma) (MTT) it was 39 ± 3 µM; in data set [2] (MTT, 72 h) it was 43 ± 4 µM; in data set [3] (HT-1080, MTT, 72 h) it was 38 ± 2 µM; in data set [4] (MTT), 98 ± 3 µM. In addition, the IC50 in [5] (MCF7, MTT, 72 h) amounted to 18 ± 2 µM; in data set [6] (MTT), 43 ± 3 µM; in data set [7] (MTT) it was 41 ± 2 µM. The LD50 at 24 h in data set [8] is 300 µmol/kg and 195 mg/kg. The IC50 at 24 h in [8] stood at 47 ± 4 µM.
